Test results: ChEMBL document CHEMBL1201862, “PubChem BioAssay data set” (2004)
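Following 48 hours of exposure in 96-well plates, responses at five concentrations were used to interpolate endpoints linearly. GI50: concentration for 50% inhibition of growth.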 Activity calls are given as the source filed them. No stated cut-off is given here; in the data, active = GI50 up to about 1.1 µM and inactive = higher. Starred links: 1 amine or outer side, 2 acyl side, 3 side chain; linkers in the order of their positions; H or OH if unused. Positions of bridges follow the written chain, without caps; N, C: chain ends. Non-standard residues stand in square brackets, D forms with d. Residues, ends and D or L forms follow the SMILES beside them. Peptide text beside a SMILES is read from it. * marks the point of attachment. *: point of attachment. X40 = CC[C@H](C)[C@@H](N[*:1])[C@@H](O)CC(=O)[*:2]; NMeY = CN[C@@H](Cc1ccc(O)cc1)C(=O)O; dNMeL = CN[C@H](CC(C)C)C(=O)O; Hiv = CC(C)[C@H](O)C(=O)O; Pyruvoyl = CC(=O)C(=O)*; Boc = CC(C)(C)OC(=O)*

How the values were obtained:
Test in all cases: NCI-60 cell line screen, 48 h
786-0 = system: 786-0
A549 = system: A549
CAKI-1 = system: CAKI-1
COLO 205 = system: COLO 205
HOP-92 = system: HOP-92
HT-29 = system: HT-29
IGROV-1 = system: IGROV-1
M14 = system: M14
MCF7 = system: MCF7
MDA-MB-435 = system: MDA-MB-435
MOLT-4 = system: MOLT-4
NCI-H23 = system: NCI-H23
OVCAR-3 = system: OVCAR-3
OVCAR-4 = system: OVCAR-4
SK-MEL-28 = system: SK-MEL-28
SNB-19 = system: SNB-19
SW-620 = system: SW-620
T47D = system: T47D
TK-10 = system: TK-10
UACC-257 = system: UACC-257

Compound	GI50 (786-0)	GI50 (A549)	GI50 (CAKI-1)	GI50 (COLO 205)	GI50 (HOP-92)	GI50 (HT-29)	GI50 (IGROV-1)	GI50 (M14)	GI50 (MCF7)	GI50 (MDA-MB-435)	GI50 (MOLT-4)	GI50 (NCI-H23)	GI50 (OVCAR-3)	GI50 (OVCAR-4)	GI50 (SK-MEL-28)	GI50 (SNB-19)	GI50 (SW-620)	GI50 (T47D)	GI50 (TK-10)	GI50 (UACC-257)
CN(C)c1ccc2c(c1)oc(=O)c1ccccc12	11.9 µM (inactive)	14.7 µM (inactive)	11.4 µM (inactive)	12.2 µM (inactive)	12.3 µM (inactive)	10.4 µM (inactive)	13.7 µM (inactive)	13 µM (inactive)	5.08 µM (inactive)	9.31 µM (inactive)	16.9 µM (inactive)	8.05 µM (inactive)	4.61 µM (inactive)	12.3 µM (inactive)	17.5 µM (inactive)	14.3 µM (inactive)	11.4 µM (inactive)	12.2 µM (inactive)	19.7 µM (inactive)	14.4 µM (inactive)
O=C1O/C(=C\c2ccc(O)cc2)C(c2ccc(O)c(Cl)c2)=C1Cl	50.2 µM (inactive)	40.1 µM (inactive)	37.2 µM (inactive)	96.6 µM (inactive)	26.5 µM (inactive)	53.2 µM (inactive)	40.1 µM (inactive)	35.7 µM (inactive)	16.6 µM (inactive)	27.4 µM (inactive)	49.7 µM (inactive)	33.7 µM (inactive)	38.1 µM (inactive)	69 µM (inactive)	> 100 µM (inactive)	76.9 µM (inactive)	41.7 µM (inactive)	59.7 µM (inactive)	54.8 µM (inactive)	49.5 µM (inactive)
CCCc1nnc2sc(COc3ccc(OCc4nn5c(CCC)nnc5s4)c(Cl)c3)nn12	28.5 µM (inactive)	27.5 µM (inactive)	19.1 µM (inactive)	23.2 µM (inactive)	20.4 µM (inactive)	29.4 µM (inactive)	24.9 µM (inactive)	21.9 µM (inactive)	20.9 µM (inactive)	20.5 µM (inactive)	24.9 µM (inactive)	20.2 µM (inactive)	26 µM (inactive)	14.7 µM (inactive)	26.1 µM (inactive)	33.8 µM (inactive)	40.3 µM (inactive)	2.78 µM (inactive)	31.3 µM (inactive)	20.3 µM (inactive)
COCN1CCN=c2c1c1c3c(c4ccccc4n23)CCC1	> 100 µM (inactive)	> 100 µM (inactive)	> 100 µM (inactive)	> 100 µM (inactive)	> 100 µM (inactive)	> 100 µM (inactive)	> 100 µM (inactive)	> 100 µM (inactive)	> 100 µM (inactive)	> 100 µM (inactive)	> 100 µM (inactive)	> 100 µM (inactive)	> 100 µM (inactive)	> 100 µM (inactive)	> 100 µM (inactive)	> 100 µM (inactive)	> 100 µM (inactive)	> 100 µM (inactive)	> 100 µM (inactive)	> 100 µM (inactive)
c1ccc2c(CC3NCCN3)cccc2c1	> 100 µM (inactive)	> 100 µM (inactive)	> 100 µM (inactive)	> 100 µM (inactive)	46 µM (inactive)	> 100 µM (inactive)	> 100 µM (inactive)	> 100 µM (inactive)	> 100 µM (inactive)	> 100 µM (inactive)	> 100 µM (inactive)	> 100 µM (inactive)	> 100 µM (inactive)	> 100 µM (inactive)	> 100 µM (inactive)	> 100 µM (inactive)	> 100 µM (inactive)	> 100 µM (inactive)	> 100 µM (inactive)	> 100 µM (inactive)
COC(=O)C(Cc1ccccc1)NC(=O)C(CS)NC(=O)OC(C)(C)C (stereo not drawn) (Boc-Cys-Phe-OMe; configuration not given here)	> 100 µM (inactive)	> 100 µM (inactive)	> 100 µM (inactive)	> 100 µM (inactive)	> 100 µM (inactive)	99.3 µM (inactive)	> 100 µM (inactive)	> 100 µM (inactive)	73.5 µM (inactive)	> 100 µM (inactive)	8.55 µM (inactive)	> 100 µM (inactive)	88.1 µM (inactive)	32.1 µM (inactive)	> 100 µM (inactive)	> 100 µM (inactive)	53.7 µM (inactive)	> 100 µM (inactive)	> 100 µM (inactive)	> 100 µM (inactive)
CC[C@H](C)[C@H]1NC(=O)[C@@H](NC(=O)[C@@H](CC(C)C)N(C)C(=O)[C@@H]2CCCN2C(=O)C(C)=O)[C@@H](C)OC(=O)[C@H](Cc2ccc(OC)cc2)N(C)C(=O)[C@@H]2CCCN2C(=O)[C@H](CC(C)C)NC(=O)[C@H](C(C)C)OC(=O)C[C@@H]1O (Pyruvoyl-P[dNMeL]T[X40][Hiv]LP[NMeY](Me); ester 3-C)	0.00361 µM (active)	0.00454 µM (active)	0.0581 µM (active)	0.00368 µM (active)	0.0302 µM (active)	0.00434 µM (active)	0.00471 µM (active)	0.00269 µM (active)	0.00232 µM (active)	0.00485 µM (active)	0.00423 µM (active)	0.00455 µM (active)	0.00577 µM (active)	0.00562 µM (active)	0.005 µM (active)	0.00224 µM (active)	0.00505 µM (active)	0.00404 µM (active)	0.00838 µM (active)	0.00594 µM (active)
